Measured values reported in patent US20170266133A1 (priority 2014, published 2017).

Experiments:
[1] = biological target: human DA transporters (DAT) (Homo sapiens, UniProt Q01959); assay: dopamine uptake inhibition; format: biochemical
Source text: (§1) Dasotraline [(1R,4S)-4-(3,4-Dichlorophenyl)-1,2,3,4-tetrahydronaphthalen-1-amine] is a novel compound with DNRI pharmacology.

[2] = biological target: NE transporters (NET) (Homo sapiens, UniProt P23975); assay: norepinephrine uptake inhibition; format: biochemical
Chain of NE transporters (NET) (P23975 whole entry): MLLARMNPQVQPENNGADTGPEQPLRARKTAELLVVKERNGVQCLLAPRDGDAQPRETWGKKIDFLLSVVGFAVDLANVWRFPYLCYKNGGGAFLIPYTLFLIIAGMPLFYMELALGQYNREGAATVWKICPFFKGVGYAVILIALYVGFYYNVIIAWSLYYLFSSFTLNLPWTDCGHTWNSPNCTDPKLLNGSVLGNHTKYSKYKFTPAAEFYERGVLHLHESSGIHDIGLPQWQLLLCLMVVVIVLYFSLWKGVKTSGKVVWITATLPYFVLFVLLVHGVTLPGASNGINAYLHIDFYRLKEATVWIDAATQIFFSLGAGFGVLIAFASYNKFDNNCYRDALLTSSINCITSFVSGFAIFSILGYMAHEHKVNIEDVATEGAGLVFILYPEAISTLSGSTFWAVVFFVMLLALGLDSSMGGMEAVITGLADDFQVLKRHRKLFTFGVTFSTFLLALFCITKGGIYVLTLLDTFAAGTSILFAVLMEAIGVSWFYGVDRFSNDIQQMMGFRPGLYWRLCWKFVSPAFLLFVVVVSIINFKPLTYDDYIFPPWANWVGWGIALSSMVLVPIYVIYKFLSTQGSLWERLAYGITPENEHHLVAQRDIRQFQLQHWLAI
Source text: as §1

[3] = clinical; format: in vivo, human
Experimental: Upon oral administration, methylphenidate is rapidly and completely absorbed from the gastrointestinal tract. Peak concentrations occur 1 to 2 hours after dose administration. […] When methylphenidate and cocaine are administered intravenously, their pharmacokinetics are quite similar—the percentage of each drug taken up by the brain and their rates of uptake are parallel, although the clearance from the brain of cocaine is faster than that of methylphenidate. The receptor-binding affinities for cocaine and methylphenidate are similar at the dopamine transporter in the basal ganglia and the striatum. […] Thus it appears that abuse may be related to a rapid surge in dopamine levels in the striatum. […] The consequence of the slow increase in dopamine is the absence of a “high”, and the consequence of the long T1/2 is that, following daily dosing, serum concentration gradually increases to a steady state over the course of about 7 days.

[4] = test system: adults with ADHD; assay: Phase 2 study in adults with ADHD, efficacy (ADHD RS-IV, CGI-S, WRAADDS, cognition); format: in vivo, human
Experimental: (§2) The study consisted of 3 periods including Screening, Treatment, and Washout/Follow-up, as described below. Efficacy was evaluated using the ADHD Rating Scale Version IV (ADHD RS-IV) with adult prompts. Effects on cognition were evaluated using the […]. Safety and tolerability were monitored throughout the study by collection of physical examinations, 12-lead electrocardiograms (ECG), vital signs, adverse events (AEs), hematology, blood chemistry, urinalysis, Insomnia Severity Index (ISI), and Columbia-Suicide Severity Rating Scale (C-SSRS).
(§3) Subjects self-administered the study drug at home on Days 1 through 28, at approximately the same time each night. After Day 1 subjects returned to the clinic on Days 8, 15, 22, and 29. Beginning at Day 1 and at every visit during the treatment period, the ADHD RS-IV, Wender-Reimherr Adult Attention Deficit Disorder Scale (WRAADDS), and clinical global impression—severity (CGI-S) were completed. The clinical data repository system was administered at Baseline, and Days 15 and 29.
(§4) At Days 36 and 43, subjects returned to the clinic and the ADHD RS-IV, WRAADDS, and CGI-S were completed. The clinical data repository system was completed on Day 43.

[5] = test system: adults with ADHD; format: in vivo, human
Experimental: as §2, §3, §4

[6] = clinical; format: in vivo, human; conditions: for steady-state concentration: predicted for longer-term administration from weeks 1-4
Experimental: as §2, §3, §4
From the measurements of serum concentration at 1, 2, 3, and 4 weeks, one can graph a predicted serum concentration on longer-term administration.

[7] = biological target: T1, DAT sites (Homo sapiens, UniProt Q01959); assay: DAT site occupancy versus serum concentration (other studies, not shown); conditions: in vivo
T1 construct: from tissue; host or cells: in vivo occupancy
T1 sequence (Q01959 whole entry): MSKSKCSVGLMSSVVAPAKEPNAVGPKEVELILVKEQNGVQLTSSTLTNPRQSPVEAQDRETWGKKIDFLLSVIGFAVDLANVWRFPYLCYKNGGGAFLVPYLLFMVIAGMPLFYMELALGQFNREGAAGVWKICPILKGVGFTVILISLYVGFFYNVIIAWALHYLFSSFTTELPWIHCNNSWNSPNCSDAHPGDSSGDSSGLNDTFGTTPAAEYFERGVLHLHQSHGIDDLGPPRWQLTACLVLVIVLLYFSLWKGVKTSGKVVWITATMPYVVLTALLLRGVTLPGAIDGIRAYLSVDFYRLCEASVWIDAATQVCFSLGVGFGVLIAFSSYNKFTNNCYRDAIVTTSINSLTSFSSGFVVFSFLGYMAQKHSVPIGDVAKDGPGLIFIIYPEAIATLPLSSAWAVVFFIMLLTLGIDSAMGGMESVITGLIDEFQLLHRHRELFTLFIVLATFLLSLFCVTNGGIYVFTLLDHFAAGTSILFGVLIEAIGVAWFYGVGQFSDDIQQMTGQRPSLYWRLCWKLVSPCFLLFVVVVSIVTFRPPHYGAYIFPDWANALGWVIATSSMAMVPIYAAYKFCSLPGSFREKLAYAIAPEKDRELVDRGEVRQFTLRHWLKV

[8] = test system: norepinephrine transporters; assay: circulating DHPG levels; format: in vivo, human; conditions: 8 mg/d
[9] = test system: healthy recreational stimulant users; assay: single-dose crossover abuse potential study in recreational stimulant users; format: in vivo, human
Source text: A single-dose, randomized, double-blind, double-dummy, placebo- and active-controlled crossover study with 6 treatment visits per subject was undertaken. […] Subjects participated in a medical screening visit (Visit 1), one 4-day inpatient qualification phase (Visit 2), a treatment phase (Visits 3 to 8) consisting of six 5-day inpatient treatment visits, and a safety follow-up visit (Visit 9). Within 21 days of the screening visit, subjects were enrolled and attended a qualification phase in which they received either 60 mg methylphenidate or matching placebo in a randomized double-blind crossover manner. Dosing times were separated by approximately 24 hours to ensure that subjects could discriminate and show positive effects of the positive control.
Healthy female and male subjects aged 18 to 55 years (inclusive), who were recreational central nervous system (CNS) stimulant users with cocaine experience and who had passed the methylphenidate qualification phase, were randomized into the treatment.
Drug administration occurred on Day 1 of each treatment visit followed by pharmacodynamic (PD), pharmacokinetic (PK), and safety assessments conducted for up to 72 hours post-dose. […] Subjects were randomized to one of 6 treatment sequences according to a 6×6 William square design. The capsules received at each treatment visit (Visits 3 to 8) were identical. Serial pharmacodynamic and pharmacokinetic evaluations were taken at each treatment visit. pharmacokinetic analysis was performed for dasotraline. Safety monitoring included regular assessments of vital signs, clinical laboratory tests, and adverse events (AEs), as well as continuous telemetry monitoring for at least 12 hours post-dose. Treatment visits were separated by a washout interval of at least 21 days (from the day of dosing). Subjects returned for the safety follow-up visit within approximately 14 days following the end of the last treatment visit.

[10] = clinical; conditions: human, in vivo, 8 mg
[11] = cited from earlier work
[12] = 8 mg once daily, all assessment weeks
[13] = methylphenidate 40 mg and 80 mg, single dose

Chain of human DA transporters (DAT) (Q01959 whole entry): as above

N[C@@H]1CC[C@@H](c2ccc(Cl)c(Cl)c2)c2ccccc21 [dasotraline, (1R,4S)-4-(3,4-Dichlorophenyl)-1,2,3,4-tetrahydronaphthalen-1-amine]
IC50 [1]: 3 nM | IC50 [2]: 4 nM | time to steady state serum concentration ([3]; daily dosing): about 7 days | Tmax ([3]; human, in vivo, po): 10 to 12 h | half-life ([3]; human, in vivo, read-out: serum half-life (t1/2)): 47 to 77 h | computerized cognitive assessment battery: attention, working memory, episodic memory ([4]; 8 mg once daily): no significant main effects | Wender-Reimherr ADD total score ([4]; 8 mg once daily vs placebo): did not improve enough to achieve statistical significance | ADHD RS-IV total score, LS mean change from baseline versus placebo ([4]; 8 mg once daily, Week 2): trend to separation from placebo | Wender-Reimherr subscore, attention difficulties component and disorganization component ([4]; 8 mg once daily, week 4, vs placebo): statistically significant improvement | drug misuse or diversion, Abuse Potential Monitoring Plan ([5]; 8 mg once daily): No evidence of drug misuse or diversion | Treatment-emergent adverse events (TEAEs) ([5]; 8 mg once daily, 4 weeks): higher than the percentage of TEAEs in the placebo group | anxiety leading to discontinuation ([5]; 8 mg once daily, 4 weeks): 1.8% | incidence of adverse events rated as severe ([5]; 8 mg once daily, 4 weeks): 13.5% | insomnia leading to discontinuation ([5]; 8 mg once daily, 4 weeks): 10.8% | panic attack leading to discontinuation ([5]; 8 mg once daily, 4 weeks): 2.7% | Drug Effects Questionnaire mean item scores, distance from the 0-point [5, 12]: ≤ 5 mm | Drug Effects Questionnaire, drug liking [5, 12]: No evidence of drug liking | withdrawal upon discontinuation of study drug ([5]; after 4 weeks of 8 mg once daily): No signs or symptoms of withdrawal | steady-state concentration ([6]; dose of 6 mg): about 12 ng/mL | steady-state concentration ([6]; dose of 8 mg): about 17 ng/mL | concentration at 4 weeks ([6]; human, in vivo, 8 mg once daily, by week four, read-out: serum concentration plateau): 15 to 20 ng/mL | serum concentration in the majority of patients ([6]; oral dosage form containing 6-8 mg): 10 to 18 ng/mL | serum concentration at 50% DAT site occupancy [7]: 5 to 6 ng/mL | circulating DHPG levels [8]: decreased circulating DHPG levels | differences from placebo on pharmacodynamic endpoints ([9]; 16 mg single dose): very few statistically significant differences from placebo | effects on most pharmacodynamic endpoints versus placebo ([9]; dasotraline 8, 16 and 36 mg, single dose): not significantly different from those of placebo | Cmax [10]: ~3 ng/mL | Tmax [10]: > 6 h

COC(=O)C(c1ccccc1)C1CCCCN1 (stereo not shown) [methylphenidate]
Drug Similarity Visual Analog Scale [9, 13]: strongly identified as a stimulant | overall liking [9, 13]: “liked” by subjects overall | pharmacodynamic endpoints including Drug Liking Visual Analog Scale, versus placebo [9, 13]: significant differences compared to placebo | secondary stimulant measures [9, 13]: strong stimulant effects | pharmacokinetic half-life ([11]; in vivo): approximately 2 hours | time to peak concentrations ([11]; oral administration): 1 to 2 h
